According to patent publication US20100317729A1 (GW Pharma Limited, priority 2007, published 2010):

Columns and labels:
[1] = molecular target: T1, CB1 receptor (Mus musculus, UniProt P47746); assay: [35S]GTPγS binding assay, mouse brain membranes; type: biochemical
T1 construct: membranes prepared from healthy brain tissue, which is densely populated with CB1 but not CB2 receptors; from tissue; host or cells: mouse brain membranes
Experimental: (§1) Nonspecific binding was measured in the presence of 30 μM GTPγS.
The concentrations of [^35S]GTPγS and GDP present in the assay varied depending on whether the assay was conducted with mouse brain or transfected cell membranes.
Additionally, mouse brain membranes were preincubated for 30 minutes at 30° C. with 0.5 U ml^−1 adenosine deaminase to remove endogenous adenosine.
(§2) The apparent dissociation constant (KB) values for antagonism of agonists by THCV in the vas deferens or [^35S]GTPγS binding assay have been calculated by Schild analysis from the concentration ratio, defined as the concentration of an agonist that elicits a response of a particular size in the presence of a competitive reversible antagonist at a concentration, B, divided by the concentration of the same agonist that produces an identical response in the absence of the antagonist.
(§3) Mean values have been compared using Student's two-tailed t-test for unpaired data or one-way analysis of variance (ANOVA) followed by Dunnett's test (GraphPad Prism). A P-value <0.05 was considered to be significant.

[2] = molecular target: T2, hCB2 receptors (Homo sapiens, UniProt P34972); assay: [35S]GTPγS binding assay, CHO-hCB2 cell membranes; type: biochemical; conditions: for KB-value times less than Ki-value: CHO cell membranes, KB ([35S]GTPγS) versus Ki ([3H]CP55940 displacement)
T2 construct: expressed in transfected cells; host or cells: CHO cells
T2 sequence (P34972 whole entry): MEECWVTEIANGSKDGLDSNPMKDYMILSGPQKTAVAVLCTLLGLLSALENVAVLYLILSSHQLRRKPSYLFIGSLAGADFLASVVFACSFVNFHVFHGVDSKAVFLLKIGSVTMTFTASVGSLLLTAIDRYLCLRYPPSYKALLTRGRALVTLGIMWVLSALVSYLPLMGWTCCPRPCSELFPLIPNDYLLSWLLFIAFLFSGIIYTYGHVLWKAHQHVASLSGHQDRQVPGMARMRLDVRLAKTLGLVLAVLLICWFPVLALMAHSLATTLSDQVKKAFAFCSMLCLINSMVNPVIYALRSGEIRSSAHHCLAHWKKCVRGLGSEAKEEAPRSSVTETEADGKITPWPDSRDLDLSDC
Experimental: as §1
The concentrations of [^35S]GTPγS and GDP present in the assay varied depending on whether the assay was conducted with mouse brain or transfected cell membranes. When the assay was conducted with mouse brain membranes, 0.1 nM [^35S]GTPγS and 30 μM GDP were present, whereas the corresponding concentrations present when the assay was conducted with transfected cell membranes were 1 nM and 320 μM respectively.
Additionally, mouse brain membranes were preincubated for 30 minutes at 30° C. with 0.5 U ml^−1 adenosine deaminase to remove endogenous adenosine. Agonists and antagonists were stored as a stock solution of 1 or 10 mM in DMSO, the vehicle concentration in all assay tubes being 0.11% DMSO.
Net agonist-stimulated [^35S]GTPγS binding values were calculated by subtracting basal binding values (obtained in the absence of agonist) from agonist-stimulated values (obtained in the presence of agonist) as detailed elsewhere (Ross et al., 1999a).
as §2, §3

[3] = clinical study, at least some of the patients; cited from earlier work
[4] = system: vas deferens; assay: Electrically-evoked twitch response of the vas deferens; conditions: at concentrations that antagonise cannabinoids
Excerpt: Inhibition of the electrically-evoked twitch response of the vas deferens has been expressed in percentage terms and this has been calculated by comparing the amplitude of the twitch response after each addition of a twitch inhibitor with its amplitude immediately before the first addition of the inhibitor. Contractile responses to phenylephrine and β,γ-methylene-ATP have been expressed as increases in tension (g).
as §2

[5] = molecular target: T1, CB1 receptor; assay: Radioligand displacement assay, mouse brain membranes; type: binding
Experimental: Binding was initiated by the addition of either the brain membranes (33 μg protein per tube) or the transfected hCB2 cells (25 μg protein per tube).
All assays were performed at 37° C. for 60 min before termination by addition of ice-cold wash buffer (50 mM Tris buffer, 1 mg ml^−1 bovine serum albumin, pH 7.4) and vacuum filtration using a 24-well sampling manifold and GF/B filters that had been soaked in wash buffer at 4° C. for at least 24 h.
Each reaction tube was washed six times with a 1.2 ml aliquot of wash buffer. The filters were oven-dried for 60 min and then placed in 5 ml of scintillation fluid. Radioactivity was quantified by liquid scintillation spectrometry.
Specific binding was defined as the difference between the binding that occurred in the presence and absence of 1 μM unlabelled CP55940.
Values are expressed as means and variability as s.e.mean or as 95% confidence limits.

T1 sequence (P47746 whole entry): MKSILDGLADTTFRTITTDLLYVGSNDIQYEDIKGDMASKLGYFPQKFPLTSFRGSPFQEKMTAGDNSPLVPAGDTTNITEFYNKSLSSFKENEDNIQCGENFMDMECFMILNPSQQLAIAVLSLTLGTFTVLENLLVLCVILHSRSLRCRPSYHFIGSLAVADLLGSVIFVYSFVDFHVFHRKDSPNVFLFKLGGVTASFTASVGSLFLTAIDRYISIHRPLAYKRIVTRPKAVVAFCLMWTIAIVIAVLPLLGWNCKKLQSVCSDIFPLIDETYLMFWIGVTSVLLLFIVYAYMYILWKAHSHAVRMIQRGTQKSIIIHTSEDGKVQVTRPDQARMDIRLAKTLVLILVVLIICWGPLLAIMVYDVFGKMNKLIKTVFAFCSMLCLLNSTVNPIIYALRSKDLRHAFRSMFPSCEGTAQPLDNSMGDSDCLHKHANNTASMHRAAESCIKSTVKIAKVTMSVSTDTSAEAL

With `C=C(C)[C@@H]1CCC(C)=C[C@H]1c1c(O)cc(CCCCC)cc1O` [CBD, cannabidiol] the “inhibitory effect on [35S]GTPγS binding compared with SR141716A” value ([1]; 10 μM, both compounds, mouse brain membrane) was “greatly exceeded that of SR141716A”, the “inhibition of [35S]GTPγS binding to the mouse brain membrane” value ([1]; compound alone at 1 and 10 μM) was “significant inhibition” and the “KB-value times less than Ki-value” [2] was 65 times.
In the case of `Cc1c(C(=O)NN2CCCCC2)nn(-c2ccc(Cl)cc2Cl)c1-c1ccc(Cl)cc1` [SR141716A], the “depression in patients enrolled in the trials” value [3] is listed as “significant increase in depression”.
With `CCCc1cc(O)c2c(c1)OC(C)(C)[C@@H]1CCC(C)=C[C@@H]21` [THCV, tetrahydrocannabidivarin] the “effect by itself on the ability of [35S]GTPγS to bind” value ([1]; mouse brain membranes, at concentrations that antagonise cannabinoids) was “did not affect”, the “effect by itself on the amplitude of the electrically-evoked contractions” value [4] was “did not affect” and the “effect by itself on the ability of [35S]GTPγS to bind” value ([2]; CHO-hCB2 cell membranes, at concentrations that antagonise cannabinoids) was “did not affect”.
With `CCCCCCC(C)(C)c1ccc([C@@H]2C[C@H](O)CC[C@H]2CCCO)c(O)c1` [[^3H]CP55940] the Kd [5] was 2.31 nM.
In the case of SR144528 [reference compound], the “KB-value times less than Ki-value” [2] is reported as 15 times.
